Measured values: patent publication US8906966B2, “Medicaments containing panthenol” (priority 2006, dated 2014)

What was measured:
Type in all cases: in vivo, human
[1] = test system: patients treated for traumatic inflammatory conditions; assay: Safety and tolerability from case notes of the 62 patients, Example 1
Description: 62 patients ([…]) aged 21 to 85 years were treated for traumatic inflammatory conditions. The patients were administered one or more intra-articular or peri-articular injections, i.e., into the inflamed joint or nearby area, of dexpanthenol in combination with a long acting local anesthetic [4 ml of an aqueous solution of dexpanthenol Ph Eur (equal to 1 g of dexpanthenol); 1 ml of 0.1% bupivacaine].
Five (8%) of the 62 patients reported adverse events, including numbness and injection site pain, which resolved with time.

[2] = test system: patients treated for traumatic inflammatory conditions; assay: Pain relief following intra-articular or peri-articular injection, Example 1; conditions: for Outcome: Improved (%) / Outcome: Improved n / Outcome: No change (%) / Outcome: No change n / Outcome: Not reported (%) / Outcome: Not reported n / Outcome: Temporarily improved (%) / Outcome: Temporarily improved n / Outcome: Worsened (%) / Outcome: Worsened n: 1 g dexpanthenol + 1 ml 0.1% bupivacaine intra- or peri-articular
Description: 62 patients ([…]) aged 21 to 85 years were treated for traumatic inflammatory conditions. The patients were administered one or more intra-articular or peri-articular injections, i.e., into the inflamed joint or nearby area, of dexpanthenol in combination with a long acting local anesthetic [4 ml of an aqueous solution of dexpanthenol Ph Eur (equal to 1 g of dexpanthenol); 1 ml of 0.1% bupivacaine]. In terms of pain relief following injection, efficacy outcome of the treatment is shown in the table below: Injection of facet joints has previously almost invariably been done using MRI to ensure exact placing of the needle. […] By palpating the patient's back in the area of pain and spasm, there is often an area of extreme tenderness about 5 cms from the midline, indicating the site of the inflamed facet joints. If a needle is inserted at right angles into this area, it will be located in or exceedingly close to the facet joint.

inflamed joint = assay: Patient response to a program of injections into or outside the inflamed joint (description)
Description: In some embodiments, a typical dose is an aqueous solution (about 2 milliliters) containing about 500 mg of panthenol (e.g., dexpanthenol) or an aqueous solution (about 4 milliliters) containing about 1000 mg of panthenol (e.g., dexpanthenol). Lower doses can also be used (e.g., 250 mg of panthenol). The aqueous solution can be injected directly into the site of the inflamed joint or outside of the joint as described herein. A program of injections is generally desirable in which dosages similar to that indicated above are given at intervals of a few days (e.g., 2, 3, 4, 5, or 6 days) to about one week. Reduced inflammation and increased freedom of movement is typically noticeable within 48 hours from the initial injection. Using the 1000 mg dose, patients have reported an estimated 80% reduction of pain after the first injection. In certain embodiments, for larger doses (e.g., ≧1000 milligrams), the active ingredient can be provided in two or more closely spaced (e.g., from about 5 minutes to about 1 hour) and smaller doses (e.g., each independently about 400, about 500, or about 600 milligrams).

[3] = of the 62 patients, numbness and injection site pain, resolved with time, with bupivacaine
[4] = Total of all sites of complaint, n 98
[5] = site of complaint Back (post-traumatic spondylitis), n 54
[6] = where outcome reported, cohort of 62 patients, with bupivacaine

SMILES: CC(C)(CO)[C@@H](O)C(=O)NCCCO [dexpanthenol]
- safety and tolerability ([1]; injections into the joint or nearby area, in combination with bupivacaine, 62 patients): generally safe and well tolerated
- patients who reported adverse events (%) [1, 3]: 8%
- patients who reported adverse events (number) [1, 3]: Five
- Outcome: Improved (%) [2, 4]: 50.0%
- Outcome: Improved n [2, 4]: 49 n
- Outcome: No change (%) [2, 4]: 10.2%
- Outcome: No change n [2, 4]: 10 n
- Outcome: Not reported (%) [2, 4]: 20.4%
- Outcome: Not reported n [2, 4]: 20 n
- Outcome: Temporarily improved (%) [2, 4]: 13.2%
- Outcome: Temporarily improved n [2, 4]: 13 n
- Outcome: Worsened (%) [2, 4]: 6.1%
- Outcome: Worsened n [2, 4]: 6 n
- effectiveness of injection adjacent to the facet joint versus directly into the joint ([2]; facet joints, injection without MRI): equally effective
- Outcome: Improved (%) [2, 5]: 55.6%
- Outcome: Improved n [2, 5]: 30 n
- Outcome: No change (%) [2, 5]: 11.1%
- Outcome: No change n [2, 5]: 6 n
- Outcome: Not reported (%) [2, 5]: 16.7%
- Outcome: Not reported n [2, 5]: 9 n
- Outcome: Temporarily improved (%) [2, 5]: 11.1%
- Outcome: Temporarily improved n [2, 5]: 6 n
- Outcome: Worsened (%) [2, 5]: 5.6%
- Outcome: Worsened n [2, 5]: 3 n
- Outcome: Improved (%) ([2]; site of complaint Hip, n 22): 40.9%
- Outcome: Improved n ([2]; site of complaint Hip, n 22): 9 n
- Outcome: No change (%) ([2]; site of complaint Hip, n 22): 9.1%
- Outcome: No change n ([2]; site of complaint Hip, n 22): 2 n
- Outcome: Not reported (%) ([2]; site of complaint Hip, n 22): 22.7%
- Outcome: Not reported n ([2]; site of complaint Hip, n 22): 5 n
- Outcome: Temporarily improved (%) ([2]; site of complaint Hip, n 22): 18.2%
- Outcome: Temporarily improved n ([2]; site of complaint Hip, n 22): 4 n
- Outcome: Worsened (%) ([2]; site of complaint Hip, n 22): 9.1%
- Outcome: Worsened n ([2]; site of complaint Hip, n 22): 2 n
- Outcome: Improved (%) ([2]; site of complaint Knee, n 8): 62.5%
- Outcome: Improved n ([2]; site of complaint Knee, n 8): 5 n
- Outcome: No change (%) ([2]; site of complaint Knee, n 8): 12.5%
- Outcome: No change n ([2]; site of complaint Knee, n 8): 1 n
- Outcome: Not reported (%) ([2]; site of complaint Knee, n 8): 25.0%
- Outcome: Not reported n ([2]; site of complaint Knee, n 8): 2 n
- Outcome: Temporarily improved (%) ([2]; site of complaint Knee, n 8): 0 (0) %
- Outcome: Temporarily improved n ([2]; site of complaint Knee, n 8): 0 (0) n
- Outcome: Worsened (%) ([2]; site of complaint Knee, n 8): 0 (0) %
- Outcome: Worsened n ([2]; site of complaint Knee, n 8): 0 (0) n
- Outcome: Improved (%) ([2]; site of complaint Other, n 14): 35.7%
- Outcome: Improved n ([2]; site of complaint Other, n 14): 5 n
- Outcome: No change (%) ([2]; site of complaint Other, n 14): 7.1%
- Outcome: No change n ([2]; site of complaint Other, n 14): 1 n
- Outcome: Not reported (%) ([2]; site of complaint Other, n 14): 28.6%
- Outcome: Not reported n ([2]; site of complaint Other, n 14): 4 n
- Outcome: Temporarily improved (%) ([2]; site of complaint Other, n 14): 21.4%
- Outcome: Temporarily improved n ([2]; site of complaint Other, n 14): 3 n
- Outcome: Worsened (%) ([2]; site of complaint Other, n 14): 7.1%
- Outcome: Worsened n ([2]; site of complaint Other, n 14): 1 n
- patients who said that their condition had worsened [2, 6]: less than 10%
- share of all patients who benefited from pain relief [2, 6]: about three-quarters

SMILES: CC(C)(CO)[C@@H](O)C(=O)NCCCO [panthenol]
- reduction of pain reported by patients (inflamed joint; 1000 mg dose, after the first injection, estimated): ~80%
- time until reduced inflammation and increased freedom of movement is noticeable (inflamed joint; from the initial injection, typical doses 500 mg or 1000 mg in aqueous solution): ≤ 48 h
